PubChem BioAssay (NCI)
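Values below derive from 48-hour exposures of cells grown in 96-well plates, with endpoints linearly interpolated between the two concentrations bracketing the appropriate inhibition level. TGI: concentration producing complete growth inhibition.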

Columns and labels:
Experiment in all cases: NCI-60 cell line screen, 48 h
KM12 colon = system: KM12 colon
DMS 273 small cell lung = system: DMS 273 small cell lung
U251 CNS = system: U251 CNS
SK-MEL-5 melanoma = system: SK-MEL-5 melanoma
HOP-62 NSCLC = system: HOP-62 NSCLC
HCT-15 colon = system: HCT-15 colon
SK-MEL-28 melanoma = system: SK-MEL-28 melanoma
SNB-19 CNS = system: SNB-19 CNS
NCI-H226 lung = system: NCI-H226 lung
SF-539 CNS = system: SF-539 CNS
MOLT-4 leukemia = system: MOLT-4 leukemia
HCT-116 colon = system: HCT-116 colon
TK-10 renal = system: TK-10 renal
SNB-78 CNS = system: SNB-78 CNS
EKVX NSCLC = system: EKVX NSCLC
OVCAR-4 ovarian = system: OVCAR-4 ovarian
IGROV1 ovarian = system: IGROV1 ovarian
CCRF-CEM leukemia = system: CCRF-CEM leukemia
COLO 205 colon = system: COLO 205 colon
SF-295 CNS = system: SF-295 CNS
LXFL 529 NSCLC = system: LXFL 529 NSCLC
HT29 colon = system: HT29 colon
UACC-62 melanoma = system: UACC-62 melanoma
SN12C renal = system: SN12C renal
OVCAR-3 ovarian = system: OVCAR-3 ovarian
SNB-75 CNS = system: SNB-75 CNS
HOP-92 NSCLC = system: HOP-92 NSCLC
SR leukemia = system: SR leukemia
UACC-257 melanoma = system: UACC-257 melanoma
NCI-H522 lung = system: NCI-H522 lung
A549 NSCLC = system: A549 NSCLC
CAKI-1 renal = system: CAKI-1 renal
DLD-1 colon = system: DLD-1 colon
HCC-2998 colon = system: HCC-2998 colon
K-562 leukemia = system: K-562 leukemia
SW-620 colon = system: SW-620 colon
M14 melanoma = system: M14 melanoma
UO-31 renal = system: UO-31 renal
SF-268 CNS = system: SF-268 CNS
KM20L2 colon = system: KM20L2 colon
MALME-3M melanoma = system: MALME-3M melanoma
OVCAR-5 ovarian = system: OVCAR-5 ovarian
NCI-H23 lung = system: NCI-H23 lung
HL-60(TB) leukemia = system: HL-60(TB) leukemia
ACHN renal = system: ACHN renal
NCI-H460 lung = system: NCI-H460 lung
DMS 114 small cell lung = system: DMS 114 small cell lung
SK-OV-3 ovarian = system: SK-OV-3 ovarian
M19-MEL melanoma = system: M19-MEL melanoma
LOX IMVI melanoma = system: LOX IMVI melanoma
MDA-MB-435 = system: MDA-MB-435
BT-549 breast = system: BT-549 breast
A498 renal = system: A498 renal
MDA-N = system: MDA-N
786-0 renal = system: 786-0 renal
HS 578T breast = system: HS 578T breast
DU-145 prostate = system: DU-145 prostate
MDA-MB-231 breast = system: MDA-MB-231 breast
RPMI-8226 leukemia = system: RPMI-8226 leukemia
NCI/ADR-RES ovarian = system: NCI/ADR-RES ovarian
PC-3 prostate = system: PC-3 prostate
T-47D breast = system: T-47D breast
OVCAR-8 ovarian = system: OVCAR-8 ovarian
MCF7 breast = system: MCF7 breast
RXF 393 renal = system: RXF 393 renal
SK-MEL-2 melanoma = system: SK-MEL-2 melanoma

With `C=CCc1cc(OC)c2c(c1)C(OC(C)=O)CC(c1ccc(OC)c(OC)c1)O2` (stereo not drawn) as the compound, how does the TGI (KM12 colon) read?
Its TGI is greater than 100 µM.

What about the TGI (DMS 273 small cell lung) of the same compound?
Its TGI is greater than 100 µM.

What about the TGI (U251 CNS) of the same compound?
Its TGI is greater than 100 µM.

And the TGI (SK-MEL-5 melanoma)?
Its TGI is greater than 100 µM.

And the TGI (HOP-62 NSCLC)?
Its TGI is greater than 100 µM.

And the TGI (HCT-15 colon)?
The TGI was greater than 100 µM.

And the TGI (SK-MEL-28 melanoma)?
The TGI was greater than 100 µM.

What about the TGI (SNB-19 CNS) of the same compound?
The TGI was greater than 100 µM.

And the TGI (NCI-H226 lung)?
The TGI was greater than 100 µM.

And the TGI (SF-539 CNS)?
Its TGI is greater than 100 µM.

And the TGI (MOLT-4 leukemia)?
Its TGI is greater than 100 µM.

And the TGI (HCT-116 colon)?
Its TGI is greater than 100 µM.

What about the TGI (TK-10 renal) of the same compound?
The TGI was greater than 100 µM.

What about the TGI (SNB-78 CNS) of the same compound?
Its TGI is greater than 100 µM.

And the TGI (EKVX NSCLC)?
The TGI was greater than 100 µM.

What about the TGI (OVCAR-4 ovarian) of the same compound?
The TGI was greater than 100 µM.

And the TGI (IGROV1 ovarian)?
Its TGI is greater than 100 µM.

What about the TGI (CCRF-CEM leukemia) of the same compound?
The TGI was greater than 100 µM.

And the TGI (COLO 205 colon)?
The TGI was greater than 100 µM.

And the TGI (SF-295 CNS)?
Its TGI is greater than 100 µM.

What about the TGI (LXFL 529 NSCLC) of the same compound?
The TGI was greater than 100 µM.

And the TGI (HT29 colon)?
Its TGI is greater than 100 µM.

What about the TGI (UACC-62 melanoma) of the same compound?
The TGI was greater than 100 µM.

And the TGI (SN12C renal)?
Its TGI is greater than 100 µM.

What about the TGI (OVCAR-3 ovarian) of the same compound?
The TGI was greater than 100 µM.

What about the TGI (SNB-75 CNS) of the same compound?
Its TGI is 58.6 µM.

And the TGI (HOP-92 NSCLC)?
Its TGI is 76.2 µM.

What about the TGI (SR leukemia) of the same compound?
The TGI was greater than 100 µM.

And the TGI (UACC-257 melanoma)?
Its TGI is greater than 100 µM.

What about the TGI (NCI-H522 lung) of the same compound?
The TGI was greater than 100 µM.

What about the TGI (A549 NSCLC) of the same compound?
The TGI was greater than 100 µM.

And the TGI (CAKI-1 renal)?
The TGI was greater than 100 µM.

And the TGI (DLD-1 colon)?
The TGI was greater than 100 µM.

And the TGI (HCC-2998 colon)?
The TGI was greater than 100 µM.

What about the TGI (K-562 leukemia) of the same compound?
Its TGI is greater than 100 µM.

What about the TGI (SW-620 colon) of the same compound?
The TGI was greater than 100 µM.

What about the TGI (M14 melanoma) of the same compound?
The TGI was greater than 100 µM.

What about the TGI (UO-31 renal) of the same compound?
Its TGI is greater than 100 µM.

What about the TGI (SF-268 CNS) of the same compound?
The TGI was greater than 100 µM.

What about the TGI (KM20L2 colon) of the same compound?
Its TGI is greater than 100 µM.

What about the TGI (MALME-3M melanoma) of the same compound?
The TGI was greater than 100 µM.

What about the TGI (OVCAR-5 ovarian) of the same compound?
Its TGI is greater than 100 µM.

And the TGI (NCI-H23 lung)?
Its TGI is greater than 100 µM.

What about the TGI (HL-60(TB) leukemia) of the same compound?
Its TGI is greater than 100 µM.

And the TGI (ACHN renal)?
Its TGI is greater than 100 µM.

What about the TGI (NCI-H460 lung) of the same compound?
Its TGI is greater than 100 µM.

What about the TGI (DMS 114 small cell lung) of the same compound?
Its TGI is greater than 100 µM.

And the TGI (SK-OV-3 ovarian)?
The TGI was greater than 100 µM.

And the TGI (M19-MEL melanoma)?
Its TGI is greater than 100 µM.

What does the source list for `NCCc1c[nH]c2ccc(OC(=O)C(=O)O)cc12`?
TGI (LOX IMVI melanoma): > 100 µM; TGI (KM12 colon): > 100 µM; TGI (MDA-MB-435): > 100 µM; TGI (U251 CNS): > 100 µM; TGI (SK-MEL-5 melanoma): > 100 µM; TGI (HOP-62 NSCLC): > 100 µM; TGI (HCT-15 colon): > 100 µM; TGI (SK-MEL-28 melanoma): > 100 µM; TGI (SNB-19 CNS): > 100 µM; TGI (NCI-H226 lung): > 100 µM; TGI (BT-549 breast): > 100 µM; TGI (SF-539 CNS): > 100 µM; TGI (A498 renal): > 100 µM; TGI (MOLT-4 leukemia): > 100 µM; TGI (HCT-116 colon): > 100 µM; TGI (TK-10 renal): > 100 µM; TGI (EKVX NSCLC): > 100 µM; TGI (OVCAR-4 ovarian): > 100 µM; TGI (IGROV1 ovarian): > 100 µM; TGI (MDA-N): > 100 µM; TGI (CCRF-CEM leukemia): > 100 µM; TGI (COLO 205 colon): > 100 µM; TGI (SF-295 CNS): > 100 µM; TGI (786-0 renal): > 100 µM; TGI (HT29 colon): > 100 µM; TGI (HS 578T breast): > 100 µM; TGI (UACC-62 melanoma): > 100 µM; TGI (DU-145 prostate): > 100 µM; TGI (SN12C renal): > 100 µM; TGI (OVCAR-3 ovarian): > 100 µM; TGI (MDA-MB-231 breast): > 100 µM; TGI (RPMI-8226 leukemia): > 100 µM; TGI (SNB-75 CNS): > 100 µM; TGI (NCI/ADR-RES ovarian): > 100 µM; TGI (PC-3 prostate): > 100 µM; TGI (HOP-92 NSCLC): > 100 µM; TGI (SR leukemia): > 100 µM; TGI (UACC-257 melanoma): > 100 µM; TGI (NCI-H522 lung): > 100 µM; TGI (A549 NSCLC): > 100 µM; TGI (CAKI-1 renal): > 100 µM; TGI (T-47D breast): > 100 µM; TGI (HCC-2998 colon): > 100 µM; TGI (OVCAR-8 ovarian): > 100 µM; TGI (K-562 leukemia): > 100 µM; TGI (SW-620 colon): > 100 µM; TGI (M14 melanoma): > 100 µM; TGI (UO-31 renal): > 100 µM; TGI (SF-268 CNS): > 100 µM; TGI (MCF7 breast): > 100 µM; TGI (RXF 393 renal): > 100 µM; TGI (MALME-3M melanoma): > 100 µM; TGI (OVCAR-5 ovarian): > 100 µM; TGI (SK-MEL-2 melanoma): > 100 µM; TGI (NCI-H23 lung): > 100 µM; TGI (HL-60(TB) leukemia): 23.2 µM; TGI (ACHN renal): > 100 µM; TGI (NCI-H460 lung): > 100 µM; TGI (SK-OV-3 ovarian): > 100 µM
